In PMC3793860, “A role for the vesicle-associated tubulin binding protein ARL6 (BBS3) in flagellum extension in Trypanosoma brucei” (Biochimica et Biophysica Acta, 2012):

Biological target: T1, TbARL6 (Trypanosoma brucei, UniProt Q57UH8)
T1 construct: gene Tb08.5H5.790; N-terminal His-tagged recombinant TbARL6 (nucleotides 1–570 of the ORF, Tb927.8.5060), expressed in E. coli
T1 sequence (Q57UH8 1-189): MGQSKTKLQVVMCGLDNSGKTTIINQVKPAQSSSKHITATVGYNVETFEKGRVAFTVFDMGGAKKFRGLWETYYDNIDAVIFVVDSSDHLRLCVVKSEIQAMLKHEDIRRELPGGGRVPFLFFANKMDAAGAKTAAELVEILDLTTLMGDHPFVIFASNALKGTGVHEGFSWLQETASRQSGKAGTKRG
Experiment: mant fluorescence titration, one-site non-linear regression; displacement kinetics
Format: binding

SMILES | Kd [µM]
CNc1ccccc1C(=O)O[C@H]1[C@@H](O)[C@H](n2cnc3c(=O)[nH]c(N)nc32)O[C@@H]1COP(=O)(O)OP(=O)(O)O [mGDP, mantGDP] | 4.35
CNc1ccccc1C(=O)O[C@H]1[C@@H](O)[C@H](n2cnc3c(=O)[nH]c(N)nc32)O[C@@H]1COP(=O)(O)OP(=O)(O)OP(=O)(O)O [mGTP, mantGTP] | 13.7
